From US20070227388A1, “Tetrakisazo Compound, Coloring Matter for Recording, Ink Composition and Colored Article” (priority 2004, published 2007)

Assay: solubility test in water (ammonia alkali) by filter paper spot
Assay type: physicochemical
Method: (Desalination process) After 83.0 parts of the compound of Formula (28) obtained in the fifth process was dissolved in 800 parts of water, 900 parts of methanol was added, and the deposited coloring matter was filtered and then dried to obtain 66.4 parts of desalted black coloring matter of Formula (28) (a compound No. 1 in Table 1: Na salt). The maximum absorption wavelength (λ max) of this coloring matter in water was 619 nm, and solubility test in water (ammonia alkali) by filter paper spot was no less than 100 g/l. [drawing 72]

| solubility [mg/mL] | SMILES |
| --- | --- |
| ≥ 100 | Nc1c(N=Nc2ccc3cc(S(=O)(=O)O)c(N=Nc4ccc([N+](=O)[O-])cc4S(=O)(=O)O)c(O)c3c2)cc(S(=O)(=O)O)c2cc(S(=O)(=O)O)c(N=Nc3ccc4c(O)c(N=Nc5ccc([N+](=O)[O-])cc5S(=O)(=O)O)c(S(=O)(=O)O)cc4c3S(=O)(=O)O)c(O)c12 [No. 6] |
| ≥ 100 | COc1ccc(N=Nc2c(S(=O)(=O)O)cc3c(S(=O)(=O)O)c(N=Nc4cc(S(=O)(=O)O)c5cc(S(=O)(=O)O)c(N=Nc6ccc7c(O)c(N=Nc8ccc(OC)cc8S(=O)(=O)O)c(S(=O)(=O)O)cc7c6S(=O)(=O)O)c(O)c5c4N)ccc3c2O)c(S(=O)(=O)O)c1 [No. 19] |
| ≥ 100 | COc1ccc(N=Nc2c(S(=O)(=O)O)cc3cc(N=Nc4c(S(=O)(=O)O)cc5c(S(=O)(=O)O)cc(N=Nc6ccc7cc(S(=O)(=O)O)c(N=Nc8ccc(OC)cc8S(=O)(=O)O)c(O)c7c6)c(N)c5c4O)ccc3c2O)c(S(=O)(=O)O)c1 [No. 21] |
| ≥ 100 | COc1ccc(N=Nc2c(S(=O)(=O)O)cc3c(S(=O)(=O)O)c(N=Nc4cc(S(=O)(=O)O)c5cc(S(=O)(=O)O)c(N=Nc6ccc7c(O)c(N=Nc8ccccc8S(=O)(=O)O)c(S(=O)(=O)O)cc7c6)c(O)c5c4N)ccc3c2O)c(S(=O)(=O)O)c1 [No. 1] |
| ≥ 100 | Nc1c(N=Nc2cc3c(O)c(N=Nc4ccc([N+](=O)[O-])cc4S(=O)(=O)O)c(S(=O)(=O)O)cc3cc2S(=O)(=O)O)cc(S(=O)(=O)O)c2cc(S(=O)(=O)O)c(N=Nc3ccc4c(O)c(N=Nc5ccc([N+](=O)[O-])cc5S(=O)(=O)O)c(S(=O)(=O)O)cc4c3S(=O)(=O)O)c(O)c12 [No. 13] |
| ≥ 100 | COc1ccc(N=Nc2c(S(=O)(=O)O)cc3cc(S(=O)(=O)O)c(N=Nc4cc(S(=O)(=O)O)c5cc(S(=O)(=O)O)c(N=Nc6ccc7c(O)c(N=Nc8ccccc8S(=O)(=O)O)c(S(=O)(=O)O)cc7c6)c(O)c5c4N)cc3c2O)c(S(=O)(=O)O)c1 [No. 2] |
| ≥ 100 | Nc1c(N=Nc2ccc3c(O)c(N=Nc4cc(C(=O)O)cc(C(=O)O)c4)c(S(=O)(=O)O)cc3c2S(=O)(=O)O)cc(S(=O)(=O)O)c2cc(S(=O)(=O)O)c(N=Nc3ccc4c(O)c(N=Nc5cc(C(=O)O)cc(C(=O)O)c5)c(S(=O)(=O)O)cc4c3S(=O)(=O)O)c(O)c12 [No. 17] |

| SMILES | solubility [mg/mL] |
| --- | --- |
| Nc1c(N=Nc2ccc3c(O)c(N=Nc4ccc([N+](=O)[O-])cc4S(=O)(=O)O)c(S(=O)(=O)O)cc3c2S(=O)(=O)O)cc(S(=O)(=O)O)c2cc(S(=O)(=O)O)c(N=Nc3ccc4c(O)c(N=Nc5ccc([N+](=O)[O-])cc5S(=O)(=O)O)c(S(=O)(=O)O)cc4c3S(=O)(=O)O)c(O)c12 [No. 16] | ≥ 100 |
